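Protocol summary: plate cells (96-well), add compound at 5 concentrations, incubate 48 h, interpolate endpoints linearly. At the TGI there is no net growth.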
Legend:
Assay in all cases: growth of human tumour cells (NCI), 48 h
TK-10 renal = tested on: TK-10 renal
OVCAR-8 ovarian = tested on: OVCAR-8 ovarian
IGROV1 ovarian = tested on: IGROV1 ovarian
SF-268 CNS = tested on: SF-268 CNS
COLO 205 colon = tested on: COLO 205 colon
A498 renal = tested on: A498 renal
CCRF-CEM leukemia = tested on: CCRF-CEM leukemia
U251 CNS = tested on: U251 CNS
UACC-62 melanoma = tested on: UACC-62 melanoma
SK-MEL-2 melanoma = tested on: SK-MEL-2 melanoma
M14 melanoma = tested on: M14 melanoma
HOP-92 NSCLC = tested on: HOP-92 NSCLC
MDA-MB-435 = tested on: MDA-MB-435
RXF 393 renal = tested on: RXF 393 renal
OVCAR-3 ovarian = tested on: OVCAR-3 ovarian
LOX IMVI melanoma = tested on: LOX IMVI melanoma
ACHN renal = tested on: ACHN renal
SK-MEL-5 melanoma = tested on: SK-MEL-5 melanoma
SNB-19 CNS = tested on: SNB-19 CNS
SR leukemia = tested on: SR leukemia
HS 578T breast = tested on: HS 578T breast
SF-539 CNS = tested on: SF-539 CNS
KM12 colon = tested on: KM12 colon
SK-OV-3 ovarian = tested on: SK-OV-3 ovarian
DU-145 prostate = tested on: DU-145 prostate
OVCAR-5 ovarian = tested on: OVCAR-5 ovarian
CAKI-1 renal = tested on: CAKI-1 renal
A549 NSCLC = tested on: A549 NSCLC
SK-MEL-28 melanoma = tested on: SK-MEL-28 melanoma
HCT-15 colon = tested on: HCT-15 colon
MDA-N = tested on: MDA-N
NCI/ADR-RES ovarian = tested on: NCI/ADR-RES ovarian
NCI-H23 lung = tested on: NCI-H23 lung
UO-31 renal = tested on: UO-31 renal
786-0 renal = tested on: 786-0 renal
NCI-H522 lung = tested on: NCI-H522 lung
BT-549 breast = tested on: BT-549 breast
K-562 leukemia = tested on: K-562 leukemia
SF-295 CNS = tested on: SF-295 CNS
PC-3 prostate = tested on: PC-3 prostate
HCC-2998 colon = tested on: HCC-2998 colon
MOLT-4 leukemia = tested on: MOLT-4 leukemia
EKVX NSCLC = tested on: EKVX NSCLC
SN12C renal = tested on: SN12C renal
MDA-MB-231 breast = tested on: MDA-MB-231 breast
OVCAR-4 ovarian = tested on: OVCAR-4 ovarian
NCI-H460 lung = tested on: NCI-H460 lung
NCI-H226 lung = tested on: NCI-H226 lung
HL-60(TB) leukemia = tested on: HL-60(TB) leukemia
HT29 colon = tested on: HT29 colon
MALME-3M melanoma = tested on: MALME-3M melanoma
SW-620 colon = tested on: SW-620 colon
RPMI-8226 leukemia = tested on: RPMI-8226 leukemia
HOP-62 NSCLC = tested on: HOP-62 NSCLC
MCF7 breast = tested on: MCF7 breast
SNB-75 CNS = tested on: SNB-75 CNS
T-47D breast = tested on: T-47D breast
UACC-257 melanoma = tested on: UACC-257 melanoma
HCT-116 colon = tested on: HCT-116 colon

Measured: TGI

COc1cc(/C=C/C(=O)O)ccc1OS(=O)(=O)O
> 100 µM: TK-10 renal | OVCAR-8 ovarian | IGROV1 ovarian | SF-268 CNS | COLO 205 colon | A498 renal | CCRF-CEM leukemia | U251 CNS | UACC-62 melanoma | SK-MEL-2 melanoma | M14 melanoma | HOP-92 NSCLC | MDA-MB-435 | RXF 393 renal | OVCAR-3 ovarian | LOX IMVI melanoma | ACHN renal | SK-MEL-5 melanoma | SNB-19 CNS | SR leukemia | HS 578T breast | SF-539 CNS | KM12 colon | SK-OV-3 ovarian | DU-145 prostate | OVCAR-5 ovarian | CAKI-1 renal | A549 NSCLC | SK-MEL-28 melanoma | HCT-15 colon | MDA-N | NCI/ADR-RES ovarian | NCI-H23 lung | UO-31 renal | 786-0 renal | NCI-H522 lung | BT-549 breast | K-562 leukemia | SF-295 CNS | PC-3 prostate | HCC-2998 colon | MOLT-4 leukemia | EKVX NSCLC | SN12C renal | MDA-MB-231 breast | OVCAR-4 ovarian | NCI-H460 lung | NCI-H226 lung | HL-60(TB) leukemia | HT29 colon | MALME-3M melanoma | SW-620 colon | RPMI-8226 leukemia | HOP-62 NSCLC | MCF7 breast | SNB-75 CNS | T-47D breast | UACC-257 melanoma | HCT-116 colon

From PubChem BioAssay (NCI)
